“Also recorded” adds a separate entry of the source.
Tests used:
[1] = test system: rat paw edema induced by carrageenan; assay: Rat paw edema induced by carrageenan; type: in vivo, Wistar rat; details: orally; for anti-inflammatory activity compared with carrageenan-only control / anti-inflammatory activity compared with the standard NSAID: single dose of 100 μmol/kg
Protocol: The anti-inflammatory activity of new phthalmidic derivatives claimed in this patent was evaluated through the model of paw edema induced by carrageenin.
The methodology to be reported can be found in detail in Bandarage, U. K.; Chen, L.; Fang, X.; Garvey, U. S.; Glavin, A.; Janero, D. R.; Letts, L. G.; Mercer, G. J.; Saha, J. K.; Schroeder, J. D.; Shumway, M. J.; Tam, S. W. Nitrosothiol Esters of Diclofenac: Synthesis and Pharmacological Characterization of the Gastrointestinal-Sparing Prodrugs. J. Med. Chem. v. 43, p. 4005-4016, 2000.
The injection of carrageenan in Wistar rat paw causes edema and local inflammation which can be seen by the increased thickness of the rat paw. Pre-treatment with compounds that have anti-inflammatory activity decreases the edema and inflammation caused by carrageenan administration.
The compounds of this invention have been administrated one (1) hour before inoculation of the irritating agent, carrageenan in the paws of the animals with the aid of a gavage tube orally, using water as a solvent.
The monitoring of the inflammation and the anti-inflammatory activity of the compounds of the invention was made by measuring the thickness in millimeters, of the rat's paw.
The control group received sub plantar injection, in the hind paws, the irritating chemical agent, carrageenan, and saline solution, orally.
The hind paws were measured before treatment and hourly for 6 hours after administration of carrageenan, through the thickness to determine their volumes (in mm). The results were expressed as the difference between the readings of the paws before and after treatments.

[2] = test system: abdominal contortions induced by acetic acid; assay: Abdominal contortion test induced by acetic acid; type: in vivo, Swiss mice; details: mice, oral; for inhibitory activity of abdominal contortion: 100 μmol/kg (FIG. 8); for Average (abdominal contortions): acetic acid 0.1 N; for % of inhibition of abdominal contortions: acetic acid 0.1 N (Table 2)
Protocol: Additionally, we conducted the evaluation of possible adverse reactions of the compounds of the invention through the abdominal contortion test induced by acetic acid. […] The results are represented in FIG. 8.
The antinociceptive profile was evaluated by testing abdominal contortions induced by acetic acid in mice. In this assay, there were used Swiss mice of both sexes weighing between 21 and 28 g, fasted for a period of approximately 8 hours. The test-substance was administered orally and had as the gum Arabic at 5% as vehicle. One hour later, it was administered acetic acid at 0.1 N (0.1 mL/10 g weight) in the peritoneal cavity of the animals. Ten minutes after injection of acetic acid, the contortions were counted for 20 minutes.

gastric mucosa = assay: Gastric lesion test (gastric ulcerogenesis); type: in vivo, rat; parameters: key to grade of gastric lesion (ulceration): ground zero for the ulceration of compounds that do not damage the gastric lining; lesions <1 mm=grade 1; 1.5 to 2.5 mm grade 2; 2.5 to 3.5 mm=grade 3; 3.5 to 4.5 mm, and grade 4; >4.5 mm=grade 5; details: for grade of gastric lesion (ulceration) / change in color or morphology of the gastric mucosa / lesion on the gastric lining / gastric ulceration: single dose of 100 μmol/kg; for grade of gastric lesion (ulceration): scale zero to 5
From the text: We performed the evaluation of gastric lesions caused by new anti-inflammatory derived from phthalimide of the invention and compared with standard anti-inflammatory drugs (without molecular modification). The compounds were classified according to the grade of damage caused on a scale ranging from 1-5. It was assumed that: lesions <1 mm=grade 1, 1.5 to 2.5 mm grade 2, 2.5 to 3.5 mm=grade 3, 3.5 to 4.5 mm, and grade 4=>4.5 mm=grade 5. The results obtained were reported as averages±E. P. M. All results were submitted to the variance homogeneity test (Levene's Test) to confirm homogeneity. The results with not significant p (above 0.05), were subsequently subjected to Variance Analysis (ANOVA) followed by multiple comparison test (post hoc analyses) such as the Newman-Keul's test, and only the values of p were considered when they were equal or below 0.05.
The stomachs were also evaluated on the number of lesions observed.
In order to characterize the profile of gastric lesion caused by the new anti-inflammatory derivatives of the invention the extent of the lesions caused by the administration of said anti-inflammatory agents was measured.
The gastric ulcerogenesis was verified in the same animals from the groups used for the paw's edema model.
After six hours of readings of the legs, the animals were euthanized in CO2 and had their stomachs removed, opened towards greater curvature and washed with saline.
Through the exposure of the mucosa its color and integrity were shown. In the case of the existence of lesions, these were counted and measured according to the rate of gastric ulcerogenesis (IUG), which abides by numerical criteria for the classification of gastric mucosal lesions: (lesions <1 mm=1; 1.5 to 2.5 mm=2; 2.5 to 3.5 mm=3, 3.5 to 4.5 mm=4 and >4.5 mm=5). The results obtained were reported as averages±E. P. M.

[3] = test system: abdominal contortions induced by acetic acid; details: reports in the literature; cited from earlier work

Structure (SMILES)	anti-inflammatory activity compared with carrageenan-only control [1]	inhibitory activity of abdominal contortion [2]	Average (abdominal contortions) ([2]; 100 μmol/kg)	% of inhibition of abdominal contortions ([2]; 100 μmol/kg)	grade of gastric lesion (ulceration) (gastric mucosa; rat)	change in color or morphology of the gastric mucosa (gastric mucosa; rat)	lesion on the gastric lining / gastric ulceration (gastric mucosa; rat)	other results
O=C(NN1C(=O)c2ccccc2C1=O)c1ccccc1O [Example 1.3, N-(1,3-dioxy-1,3-dihydro-2H-isoindol-2-yl)-2-hydroxybenzamide]	significant anti-inflammatory activity	around 17.2%	54.5	17.2%	1 (lesions <1 mm=grade 1)			analgesic activity ([2]; 100 μmol/kg): showed no analgesic activity; total area of lesions (gastric mucosa; observed in six stomachs, 100 μmol/kg): 2.9 mm^2; size of microlesions on the stomach lining (gastric mucosa; rat, 100 μmol/kg): less than 1 mm
CC(C)Cc1ccc(C(C)C(=O)NN2C(=O)c3ccccc3C2=O)cc1 (stereo not shown) [Example 2.3, N-(1,3-dioxy-1,3-dihydro-2H-isoindol-2-yl)-2-(4-isobutylphenyl)propanamide]	significant anti-inflammatory activity				zero	a little change in color of the mucosa	no lesion on the gastric lining	anti-inflammatory activity compared with the standard NSAID [1]: superior activity compared with ibuprofen
COc1ccc2cc(C(C)C(=O)NN3C(=O)c4ccccc4C3=O)ccc2c1 (stereo not shown) [Example 3.3, N-(1,3-dioxy-1,3-dihydro-2H-isoindol-2-yl)-2-(6-methoxy-2-naphtyl)propanamide]	significant anti-inflammatory activity	around 42.5%	37.8	42.5%	zero	did not observe any—macro- and microscopically—morphological change or in the color of the stomach tissue	no lesion on the gastric lining	anti-inflammatory activity compared with the standard NSAID [1]: superior activity compared with ibuprofen; also recorded: much greater than naproxen
CC(C(=O)NN1C(=O)c2ccccc2C1=O)c1cccc(C(=O)c2ccccc2)c1 (stereo not shown) [Example 4.3, 2-(3-benzoylphenyl)-N-(1,3-dioxy-1,3-dihydro-2H-isoindol-2-yl)propanamide]		~37.9%	40.8	37.9%				
O=C(Cc1ccccc1Nc1c(Cl)cccc1Cl)NN1C(=O)c2ccccc2C1=O [Example 5.3, 2-{2-[(2,6-dichlorophenyl)amino]phenyl}-N-(1,3-dioxy-1,3-dihydro-2H-isoindol-2-yl)acetamide]	significant anti-inflammatory activity	~16.2%	55.1	16.2%	zero	a little change in the color of the mucosa	no lesion on the gastric lining	anti-inflammatory activity compared with diclofenac at 120 minutes ([1]; 100 μmol/kg, time of 120 minutes): significantly higher anti-inflammatory activity than that of diclofenac; anti-inflammatory activity compared with diclofenac at 240 and 360 minutes ([1]; 100 μmol/kg, times 240 and 360 minutes): same activity profile is kept; anti-inflammatory activity compared with the standard NSAID [1]: significant anti-inflammatory activity when compared to positive control (carrageenan), and to diclofenac
Cc1ccc(Nc2c(F)cccc2Cl)c(CC(=O)NN2C(=O)c3ccccc3C2=O)c1 [Example 6.3, 2-{2-[(2-chloro-6-fluorophenyl)amine]-5-methylphenyl}-N-(1,3-dioxy-1,3-dihydro-2H-isoindol-2-1)acetamide]	significant anti-inflammatory activity				zero	did not observe any—macro- and microscopically—morphological change or in the color of the stomach tissue	no lesion on the gastric lining	
Cc1ccc(-c2cc(C(F)(F)F)nn2-c2ccc(S(N)(=O)=O)cc2)cc1 [celecoxib, reference compound]					2 (1.5 to 2.5 mm grade 2)			
O=C(O)Cc1ccccc1Nc1c(Cl)cccc1Cl [diclofenac, reference compound]					5 (>4.5 mm=grade 5)			analgesic activity in this model according to the literature [3]: do not have analgesic activity
CC(C)Cc1ccc(C(C)C(=O)O)cc1 (stereo not shown) [ibuprofen, reference compound]					5 (>4.5 mm=grade 5)			
Cc1ccc(Nc2c(F)cccc2Cl)c(CC(=O)O)c1 [lumiracoxib, reference compound]					2 (1.5 to 2.5 mm grade 2)			
COc1ccc2cc([C@H](C)C(=O)O)ccc2c1 [naproxen, reference compound]		about 43%			5 (>4.5 mm=grade 5)			
O=C(O)c1ccccc1O [salicylic acid, reference compound]					5 (>4.5 mm=grade 5)			

Reference: US20120115817A1, “PHTHALIMIDE DERIVATIVES OF NON-STEROIDAL ANTI-INFLAMMATORY COMPOUNDS AND/OR TNF-ALPHA MODULATORS, METHOD FOR PRODUCING SAME, PHARMACEUTICAL COMPOSITIONS CONTAINING SAME AND USES THEREOF FOR THE TREATMENT OF INFLAMMATORY DISEASES” (EMS S.A., priority 2009, published 2012)
